These results are taken from patent US20060188959A1, “Crystal structure of worm NitFhit reveals that a Nit tetramer binds tow Fhit dimers” (Thomas Jefferson University, priority 2000, published 2006).

Like-named read-outs stand apart in the source and are kept apart here.

One may read the Km as the substrate concentration at which the rate is half of its maximum. As a reminder, the kcat is the maximal rate divided by the concentration of active sites.

Assay type in all cases: biochemical, C. elegans
The target in assay [1] is T1, Fhit active site of NitFhit (Caenorhabditis elegans, UniProt O76463).
T1 construct: generated an NdeI site at the initiator codon and an XhoI site 3′ of the stop codon; made in house; host or cells: E. coli strain ER2566
T1 sequence (O76463 1-440): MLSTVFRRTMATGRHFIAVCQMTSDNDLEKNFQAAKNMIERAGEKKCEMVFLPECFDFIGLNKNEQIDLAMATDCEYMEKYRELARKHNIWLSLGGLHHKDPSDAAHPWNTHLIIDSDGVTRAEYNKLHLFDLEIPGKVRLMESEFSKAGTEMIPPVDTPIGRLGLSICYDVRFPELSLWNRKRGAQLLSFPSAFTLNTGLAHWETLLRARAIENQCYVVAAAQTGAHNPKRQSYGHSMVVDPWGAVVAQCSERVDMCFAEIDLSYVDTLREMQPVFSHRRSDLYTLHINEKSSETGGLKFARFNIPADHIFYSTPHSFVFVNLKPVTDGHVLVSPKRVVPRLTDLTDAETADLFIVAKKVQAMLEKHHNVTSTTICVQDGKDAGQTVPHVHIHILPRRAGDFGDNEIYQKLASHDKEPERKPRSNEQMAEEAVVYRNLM
Briefly: Nonlabeled compounds as competitive inhibitors of ApppBODIPY hydrolysis.
Experimental: Assays of nonlabeled compounds as competitive inhibitors of ApppBODIPY hydrolysis were also performed as developed for human Fhit.

Assay [2] addresses T1, Fhit active site of NitFhit. In words: ApppBODIPY substrate decay assay of the Fhit active site of NitFhit. The following applies: ApppBODIPY as substrate; % of the activity of human Fhit.
For assay [3] the target is unchanged. In words: GpppBODIPY initial rate assay of the Fhit active site of NitFhit.
Setting [4] is: titration of nonlabeled compound into 1.5 μM ApppBODIPY assays, five competitor concentrations, read-out: Kl.
The mark [5] stands for this setting: initial rates, GpppBODIPY titrated 40 μM to 2.5 μM, 0.5 pmol enzyme.

As for `Nc1ncnc2c1ncn2[C@@H]1O[C@H](COP(=O)(O)OP(=O)(O)OP(=O)(O)OP(=O)(O)OC[C@H]2O[C@@H](n3cnc4c(N)ncnc43)[C@H](O)[C@@H]2O)[C@@H](O)[C@H]1O` [AppppA], in assay [1] (setting [4]), the Ki came to 2.7 ± 0.3 µM.

As for “Appp-S-(4-4-fluoro-5,7-dimethyl-4-bora-3a,4a-diaza-s-indacine-3-yl) [ApppBODIPY]”, the “activity of worm NitFhit relative to human Fhit on the substrate (kcat/Km)” value in assay [2] is given as 22%.

On to `Nc1ncnc2c1ncn2[C@@H]1O[C@H](COP(=O)(O)OP(=O)(O)OP(=O)(O)OC[C@H]2O[C@@H](n3cnc4c(N)ncnc43)[C@H](O)[C@@H]2O)[C@@H](O)[C@H]1O` [ApppA], for which the Ki in assay [1] (setting [4]) worked out at 4.2 ± 0.4 µM.

As for `Nc1ncnc2c1ncn2[C@@H]1O[C@H](COP(=O)(O)OP(=O)(O)OP(=O)(O)OP(=O)(O)OP(=O)(O)OC[C@H]2O[C@@H](n3cnc4c(N)ncnc43)[C@H](O)[C@@H]2O)[C@@H](O)[C@H]1O` [ApppppA], the Ki in assay [1] (setting [4]) is 4.5 ± 0.7 µM.

In turn, `O=P(O)(O)OP(=O)(O)O` [pyrophosphate] displayed a Ki in assay [1] of 78 ± 12 µM.

In turn, `Nc1ncnc2c1ncn2[C@@H]1O[C@H](COP(=O)(O)O)[C@@H](O)[C@H]1O` [AMP] displayed a Ki in assay [1] of 153 ± 13 µM.

In assay [1], `Nc1nc(O)c2ncn([C@@H]3O[C@H](COP(=O)(S)OP(=O)(O)OP(=O)(O)O)[C@@H](O)[C@H]3O)c2n1` (some centres unmarked) [GTP-αS] returned a Ki of 481 ± 27 µM.

`Nc1ncnc2c1ncn2[C@@H]1O[C@H](COP(O)(=S)OP(=O)(O)OP(=O)(O)O)[C@@H](O)[C@H]1O` (some centres unmarked) [ATP-αS]: in assay [1], the Ki is 287 ± 73 µM.

Regarding “Gppp-S-(4-4-fluoro-5,7-dimethyl-4-bora-3a,4a-diaza-s-indacine-3-yl) [GpppBODIPY]”, the “activity of worm NitFhit relative to human Fhit on the substrate (kcat/Km)” value in assay [3] (GpppBODIPY as substrate, % of the activity of human Fhit) came out at 109%. Moreover, in assay [3] (setting [5]), the Michaelis-Menten constant (Km) was 3.7 µM and the kcat amounted to 2.4 s⁻¹.
